Laboratory results reported in US20230365582A1, “NOVEL COMPOUNDS HAVING INHIBITORY ACTIVITY ON PROSTAGLANDIN E2 RECEPTOR AND USES THEREOF” (KANAPH THERAPEUTICS INC., priority 2020, published 2023).

Legend:
hEP4 = biological target: T1, hEP4 (Homo sapiens, UniProt P35408); experiment: hEP4 cAMP assay; assay type: cell-based; details: HEK293 cells overexpressing hEP4; PGE2 agonist 20 nM; graded per Table 21; read-out: IC50 (nM) EP4 cAMP
T1 construct: expressed in transfected cells; host or cells: HEK293
Outline: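 HEK293 cells overexpressing hEP4, starved 4 h, were treated with compound (10 μM-0.001 nM) plus 20 nM PGE2 (EC50-80) in HBSS buffer with 0.5 mM IBMX for 18.5 min at room temperature. cAMP was read by TR-FRET (665/615 nm) as % of DMSO control; IC50 from 4-parameter fit, median of multiple experiments.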

hEP2 = biological target: T2, hEP2 (Homo sapiens, UniProt P43116); experiment: hEP2 cAMP assay; assay type: cell-based; details: HEK293 cells overexpressing hEP2; PGE2 agonist 400 pM; graded per Table 21; read-out: IC50 (nM) EP2 cAMP
T2 construct: expressed in transfected cells; host or cells: HEK293
Outline: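 HEK293 cells overexpressing hEP2, serum-starved 4 h, then 1,000 cells/well treated with compound (10 μM–0.001 nM) plus 400 pM PGE2 (about EC50-80) in HBSS buffer with 0.5 mM IBMX for 12 min at room temperature. cAMP measured by TR-FRET (665/615 nm) as % of DMSO control; IC50 from 4-parameter fit, median of repeats.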

T2 sequence (P43116 whole entry): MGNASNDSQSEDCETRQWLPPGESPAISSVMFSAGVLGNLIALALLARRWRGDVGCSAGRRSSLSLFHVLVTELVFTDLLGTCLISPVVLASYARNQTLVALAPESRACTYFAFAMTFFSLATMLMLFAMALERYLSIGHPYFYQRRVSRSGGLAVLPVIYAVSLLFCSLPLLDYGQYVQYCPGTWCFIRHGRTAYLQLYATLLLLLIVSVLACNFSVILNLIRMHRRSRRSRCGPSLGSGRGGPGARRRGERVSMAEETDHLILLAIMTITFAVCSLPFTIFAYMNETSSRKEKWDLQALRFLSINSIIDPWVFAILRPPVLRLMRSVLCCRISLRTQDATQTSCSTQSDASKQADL
T1 sequence (P35408 whole entry): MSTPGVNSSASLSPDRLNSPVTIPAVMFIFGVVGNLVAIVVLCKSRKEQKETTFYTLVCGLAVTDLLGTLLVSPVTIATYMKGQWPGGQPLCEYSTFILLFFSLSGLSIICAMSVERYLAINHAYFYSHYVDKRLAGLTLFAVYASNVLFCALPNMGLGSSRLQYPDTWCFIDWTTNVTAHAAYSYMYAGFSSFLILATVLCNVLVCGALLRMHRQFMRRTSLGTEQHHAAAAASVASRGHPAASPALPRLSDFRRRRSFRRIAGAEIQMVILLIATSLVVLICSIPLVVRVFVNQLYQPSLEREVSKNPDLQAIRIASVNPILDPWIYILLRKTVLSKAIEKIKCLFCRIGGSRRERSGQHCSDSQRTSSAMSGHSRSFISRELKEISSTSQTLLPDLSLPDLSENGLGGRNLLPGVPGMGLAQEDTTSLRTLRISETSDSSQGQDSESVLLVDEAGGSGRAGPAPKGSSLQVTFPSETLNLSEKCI

| SMILES | IC50 (hEP4) | IC50 (hEP2) |
| --- | --- | --- |
| Cc1sc(C)c(C(=O)NC2CC3(C2)CC(C(=O)O)C3)c1Cc1ccc(-c2ccc(F)c(C(=O)O)c2)cc1 (centres unmarked) [Example 37, 6-(4-((3′-carboxy-4′-fluoro-[1,1′-biphenyl]-4-yl)methyl)-2,5-dimethylthiophene-3-carboxamido)spiro[3.3]heptane-2-carboxylic acid] | 5000 to 10000 nM | > 10000 nM |
| Cc1sc2ccn(Cc3ccc(-c4ccccc4)cc3)c2c1C(=O)N[C@H]1CC2(C1)C[C@H](C(=O)O)C2 (single isomer, unassigned) [Example 80a] | > 10000 nM | 500 to 5000 nM |
| O=C(N[C@H]1CC2(C1)C[C@H](C(=O)O)C2)c1csc2ccn(Cc3ccc(-c4ccccc4)cc3)c12 (single isomer, unassigned) [Example 79a] | 500 to 5000 nM | 500 to 5000 nM |
| O=C(NC1CC2(C1)CC(C(=O)O)C2)c1csc2ccn(CC#Cc3ccccc3)c12 (centres unmarked) [Example 98, 6-(2-4-(3-phenylprop-2-yn-1-yl)-4H-thieno[3,2-b]pyrrole-3-carboxamido)spiro[3.3]heptane-2-carboxylic acid] | 500 to 5000 nM | > 10000 nM |
| Cc1sc(C)c(C(=O)NC2CC3(C2)CC(C(=O)O)C3)c1Cc1ccc(-c2cc(F)cc(S(C)(=O)=O)c2)cc1 (centres unmarked) [Example 56, 6-(4-((3′-fluoro-5′-(methylsulfonyl)-[1,1′-biphenyl]-4-yl)methyl)-2,5-dimethylthiophene-3-carboxamido)spiro[3.3]heptane-2-carboxylic acid] | 5000 to 10000 nM | > 10000 nM |
| O=C(NC12CCC(C(=O)O)(CC1)CC2)c1csc2ccn(Cc3ccc(-c4ccccc4)cc3)c12 [Example 88, 4-(4-([1,1′-biphenyl]-4-ylmethyl)-4H-thieno[3,2-b]pyrrole-3-carboxamido)bicyclo[2.2.2]octane-1-carboxylic acid] | 5000 to 10000 nM | 500 to 5000 nM |
| Cc1sc(C)c(C(=O)NC2CC3(C2)CC(C(=O)O)C3)c1Cc1ccc(C2CCNCC2)cc1 (centres unmarked) [Example 68, 6-(2,5-dimethyl-4-(4-(piperidin-4-yl)benzyl)thiophene-3-carboxamido)spiro[3.3]heptane-2-carboxylic acid] | > 10000 nM | > 10000 nM |
| Cc1sc(C)c(C(=O)NC2CC3(C2)CC(C(=O)O)C3)c1Cc1ccccc1-c1ccccc1 (centres unmarked) [Example 4, 6-(4-([1,1′-biphenyl]-2-ylmethyl)-2,5-dimethylthiophene-3-carboxamido)spiro[3.3]heptane-2-carboxylic acid] | > 10000 nM | > 10000 nM |
| Cc1cc(C(F)(F)F)n(-c2ccc(Cn3ccc4scc(C(=O)NC5CC6(C5)CC(C(=O)O)C6)c43)cc2)n1 (centres unmarked) [Example 112, 6-(4-(4-(3-methyl-5-(trifluoromethyl)-IH-pyrazol-1-yl)benzyl)-4H-thieno[3,2-b]pyrrole-3-carboxamido)spiro[3.3]heptane-2-carboxylic acid] | 500 to 5000 nM | > 10000 nM |
| Cc1sc(C)c(C(=O)NC2CC3(C2)CC(C(=O)O)C3)c1Cc1cccc(-c2ccccc2)c1 (centres unmarked) [Example 3, 6-(4-([1,1′-biphenyl]-3-ylmethyl)-2,5-dimethylthiophene-3-carboxamido)spiro[3.3]heptane-2-carboxylic acid] | 5000 to 10000 nM | > 10000 nM |
| Cc1sc(C)c(C(=O)NC2CC3(C2)CC(C(=O)O)C3)c1Cc1ccc(C2CCCCC2)cc1 (centres unmarked) [Example 67, 6-(4-(4-cyclohexylbenzyl)-2,5-dimethylthiophene-3-carboxamido)spiro[3.3]heptane-2-carboxylic acid] | 5000 to 10000 nM | > 10000 nM |
| Cc1cn(Cc2ccc(-c3ccccc3)cc2)c2c(C(=O)NC3CC4(C3)CC(C(=O)O)C4)csc12 (centres unmarked) [Example 81, 6-(4-([1,1′-biphenyl]-4-ylmethyl)-6-methyl-4H-thieno[3,2-b]pyrrole-3-carboxamido)spiro[3.3]heptane-2-carboxylic acid] | > 10000 nM | 500 to 5000 nM |
| COc1cc(F)cc(-c2ccc(Cc3c(C)sc(C)c3C(=O)N[C@H]3CC4(C3)C[C@H](C(=O)O)C4)cc2)c1 (single isomer, unassigned) [Example 34a] | 500 to 5000 nM | 5000 to 10000 nM |
| COc1cc(OC)cc(-c2ccc(Cn3ccc4scc(C(=O)NC5CC6(C5)CC(C(=O)O)C6)c43)cc2)c1 (centres unmarked) [Example 89, 6-(4-((3′,5′-dimethoxy-[1,1′-biphenyl]-4-yl)methyl)-4H-thieno[3,2-b]pyrrole-3-carboxamido)spiro[3.3]heptane-2-carboxylic acid] | < 500 nM | < 500 nM |
| Cc1sc(C)c(C(=O)NC2CC3(C2)CC(C(=O)O)C3)c1Cc1ccc(C2=CCCCC2)cc1 (centres unmarked) [Example 32, 6-(2,5-dimethyl-4-((2′,3′,4′,5′_ tetrahydro-[1,1′-biphenyl]-4-yl)methyl)thiophene-3-carboxamido)spiro[3.3]heptane-2-carboxylic acid] | 500 to 5000 nM | > 10000 nM |
| Cc1scc(Cc2ccc(-c3ccccc3)cc2)c1C(=O)NC1CC2(C1)CC(C(=O)O)C2 (centres unmarked) [Example 14, 6-(4-([1,1′-biphenyl]-4-ylmethyl)-2-methylthiophene-3-carboxamido)spiro[3.3]heptane-2-carboxylic acid] | 500 to 5000 nM | 500 to 5000 nM |

Second part, the compound after the results:

| IC50 (hEP4) | IC50 (hEP2) | SMILES |
| --- | --- | --- |
| < 500 nM | > 10000 nM | Cc1cnn(-c2ccc(Cn3ccc4scc(C(=O)NC5CC6(C5)CC(C(=O)O)C6)c43)cc2)c1 (centres unmarked) [Example 111, 6-(4-(4-(4-methyl-1H-pyrazol-1-yl)benzyl)-4H-thieno[3,2-b]pyrrole-3-carboxamido)spiro[3.3]heptane-2-carboxylic acid] |
| < 500 nM | 500 to 5000 nM | Cc1sc(C)c(C(=O)N[C@H]2CC3(C2)C[C@H](C(=O)O)C3)c1Cc1ccc(-c2ccccc2)cc1 (single isomer, unassigned) [Example 1b] |
| < 500 nM | 500 to 5000 nM | COc1cc(-c2ccc(Cc3c(C)sc(C)c3C(=O)NC3CC4(C3)CC(C(=O)O)C4)cc2)cc(N2CCC2=O)c1 (centres unmarked) [Example 62, 6-(4-((3′-methoxy-5′-(2-oxoazetidin-1-yl)-[1,1′-biphenyl]-4-yl)methyl)-2,5-dimethylthiophene-3-carboxamido)spiro[3.3]heptane-2-carboxylic acid] |
| < 500 nM | 500 to 5000 nM | Cc1sc(C)c(C(=O)NC2CC3(C2)CC(C(=O)O)C3)c1Cc1ccc(-c2cccc(F)c2)cc1 (centres unmarked) [Example 43, 6-(4-((3′-fluoro-[1,1′-biphenyl]-4-yl)methyl)-2,5-dimethylthiophene-3-carboxamido)spiro[3.3]heptane-2-carboxylic acid] |
| < 500 nM | 500 to 5000 nM | Cc1sc(C)c(C(=O)NC2CC3(C2)CC(C(=O)O)C3)c1Cc1ccc(-c2ccoc2)cc1 (centres unmarked) [Example 33, 6-(4-(4-(furan-3-yl)benzyl)-2,5-dimethylthiophene-3-carboxamido)spiro[3.3]heptane-2-carboxylic acid] |
| < 500 nM | 500 to 5000 nM | Cc1sc(C)c(C(=O)NC2CC3(C2)CC(C(=O)O)C3)c1Cc1ccc(-c2cc(O)cc(F)c2)cc1 (centres unmarked) [Example 71, 6-(4-((3′-fluoro-5′-hydroxy-[1,1′-biphenyl]-4-yl)methyl)-2,5-dimethylthiophene-3-carboxamido)spiro[3.3]heptane-2-carboxylic acid] |
| < 500 nM | 500 to 5000 nM | Cc1sc(C)c(C(=O)NC2CC3(C2)CC(C(=O)O)C3)c1Cc1ccc(-c2ccccc2)cc1F (centres unmarked) [Example 7, 6-(4-((3-fluoro-[1,1′-biphenyl]-4-yl)methyl)-2,5-dimethylthiophene-3-carboxamido)spiro[3.3]heptane-2-carboxylic acid] |
| < 500 nM | 500 to 5000 nM | COc1cncc(-c2ccc(Cn3ccc4scc(C(=O)NC5CC6(C5)CC(C(=O)O)C6)c43)cc2)c1 (centres unmarked) [Example 101, 6-(4-(4-(5-methoxypyridin-3-yl)benzyl)-4H-thieno[3,2-b]pyrrole-3-carboxamido)spiro[3.3]heptane-2-carboxylic acid] |
| < 500 nM | 500 to 5000 nM | COc1cc(F)cc(-c2ccc(Cn3ccc4scc(C(=O)NC5CC6(C5)CC(C(=O)O)C6)c43)nc2)c1 (centres unmarked) [Example 113, 6-(4-((5-(3-fluoro-5-methoxyphenyl)pyridin-2-yl)methyl)-4H-thieno[3,2-b]pyrrole-3-carboxamido)spiro[3.3]heptane-2-carboxylic acid] |
| < 500 nM | 500 to 5000 nM | O=C(NC1CC2(C1)CC(C(=O)O)C2)c1csc2ccn(Cc3ccc(-c4ccccc4)nc3)c12 (centres unmarked) [Example 105, 6-(4-((6-phenylpyridin-3-yl)methyl)-4H-thieno[3,2-b]pyrrole-3-carboxamido)spiro[3.3]heptane-2-carboxylic acid] |
| < 500 nM | 5000 to 10000 nM | Cc1sc(C)c(C(=O)NC2CC3(C2)CC(C(=O)O)C3)c1Cc1ccc(-c2cc(F)cc(C#N)c2)cc1 (centres unmarked) [Example 70, 6-(4-((3′-cyano-5′-fluoro-[1,1′-biphenyl]-4-yl)methyl)-2,5-dimethylthiophene-3-carboxamido)spiro[3.3]heptane-2-carboxylic acid] |
| < 500 nM | 500 to 5000 nM | COc1cc(-c2ccc(Cc3c(C)sc(C)c3C(=O)NC3CC4(C3)CC(C(=O)O)C4)cc2)cc(C(F)(F)F)c1 (centres unmarked) [Example 51, 6-(4-((3′-methoxy-5′-(trifluoromethyl)-[1,1′-biphenyl]-4-yl)methyl)-2,5-dimethylthiophene-3-carboxamido)spiro[3.3]heptane-2-carboxylic acid] |
